# Experimental data as given in US20250352458A1, “IMPROVEMENTS IN OR RELATING TO EXTRACTS” (Givaudan SA, priority 2020, published 2025).
# Values joined by “and” are separate entries in the source; they are usually repeats but may differ in a detail not shown here. Equal values may be shown once.
# Key:
# P. acnes (ATCC 6919) = experiment: TKC (Time Kill Curve) determination; type: cell-based, Propionibacterium acnes
# Procedure: Each strain was plated on appropriate plate and grown in the appropriate conditions. Colonies were resuspended in 5 mL of PBS to obtain a 0.5 McFarland O D (approximately 1.10^8 cfu/ml).After two days, the bacterial concentrations we readjusted in reinforced clostridial broth to obtain a solution at 1.10^6 CFU/ml (5.10^4 CFU/well). […] Bacteria quantification has been repeated at […]. For bacteria quantification a Colony counter IUL instruments, flash and go model was used. A Time Kill Curve (TKC) was performed to determine the effect of the active versus placebo on the growth of Propionibacterium acnes.
# [1] = test system: Propionibacterium acnes (C. acnes) phylotype IA1 ATCC 6919; experiment: MIC evaluation, optical density and percentage of inhibition; type: cell-based
# From the text: The minimum inhibitory concentration of the following active ingredients has been assessed: • Mangifera indica extract (in propanediol/water 75/25); • Vehicule (propanediol/water 75/25, expressed as Activolo3-75%); • “Pool Mangiferin” which is the pure molecule mangiferin at the same concentration in the Mangifera indica extract in propanediol/water 75/25. • “Pool Mangifera” with is the mix of the 4 molecules (mangiferin, maclurin-C-glucoside, irifluophenone-C-glucoside, gallotanin) at the same concentration in the Mangifera indica extract in propane-diol/water 75/25. […] After two days, the bacterial concentration was adjusted in reinforced clostridial broth to obtain a solution at 1.106 CFU/ml (5.104 CFU/well). […] Concentrations are expressed in % (m/v). […] The diluted bacterial suspension was added to columns 2 to 12. RCB medium was added to column 1 as negative control. Optical density was determined, which correlates to the bacterial growth.
# [2] = 0.39 10^−2 % (m/v), plate col. 12
# [3] = 0.78 10^−2 % (m/v), plate col. 11
# [4] = 1.56 10^−2 % (m/v), plate col. 10
# [5] = 3.1310^−2 % (m/v), plate col. 9
# [6] = 6.25 10^−2 % (m/v), plate col. 8
# [7] = 12.5 10^−2 % (m/v), plate col. 7
# [8] = 25.0 10^−2 % (m/v), plate col. 6
structure (smiles),measurement,setting,value
O=c1c2cc(O)c(O)cc2oc2cc(O)c([C@@H]3O[C@H](CO)[C@@H](O)[C@H](O)[C@H]3O)c(O)c12 [pool mangiferin],"Time Kill Curve P. acnes, bacteria quantification","P. acnes (ATCC 6919); 0.5%, T0",6.0 Log10 CFU/ml
same,"Time Kill Curve P. acnes, bacteria quantification","P. acnes (ATCC 6919); 0.5%, T + 4 h",6.2 Log10 CFU/ml
same,"Time Kill Curve P. acnes, bacteria quantification","P. acnes (ATCC 6919); 0.5%, T + 8 h",5.7 Log10 CFU/ml
same,"Time Kill Curve P. acnes, bacteria quantification","P. acnes (ATCC 6919); 0.5%, T + 24 h",6.6 Log10 CFU/ml
same,"Time Kill Curve P. acnes, bacteria quantification","P. acnes (ATCC 6919); 0.5%, T + 32 h",6.7 Log10 CFU/ml
same,"Time Kill Curve P. acnes, bacteria quantification","P. acnes (ATCC 6919); 0.5%, T + 48 h",7.8 Log10 CFU/ml
same,"Time Kill Curve P. acnes, bacteria quantification","P. acnes (ATCC 6919); 1%, T0",6.0 Log10 CFU/ml
same,"Time Kill Curve P. acnes, bacteria quantification","P. acnes (ATCC 6919); 1%, T + 4 h",6.0 Log10 CFU/ml
same,"Time Kill Curve P. acnes, bacteria quantification","P. acnes (ATCC 6919); 1%, T + 8 h",5.8 Log10 CFU/ml
same,"Time Kill Curve P. acnes, bacteria quantification","P. acnes (ATCC 6919); 1%, T + 24 h",6.5 Log10 CFU/ml
same,"Time Kill Curve P. acnes, bacteria quantification","P. acnes (ATCC 6919); 1%, T + 32 h",6.7 Log10 CFU/ml
same,"Time Kill Curve P. acnes, bacteria quantification","P. acnes (ATCC 6919); 1%, T + 48 h",7.8 Log10 CFU/ml
same,"Time Kill Curve P. acnes, bacteria quantification","P. acnes (ATCC 6919); 2%, T0",6.0 Log10 CFU/ml
same,"Time Kill Curve P. acnes, bacteria quantification","P. acnes (ATCC 6919); 2%, T + 4 h",5.7 Log10 CFU/ml
same,"Time Kill Curve P. acnes, bacteria quantification","P. acnes (ATCC 6919); 2%, T + 8 h",5.7 Log10 CFU/ml
same,"Time Kill Curve P. acnes, bacteria quantification","P. acnes (ATCC 6919); 2%, T + 24 h",6.5 Log10 CFU/ml
same,"Time Kill Curve P. acnes, bacteria quantification","P. acnes (ATCC 6919); 2%, T + 32 h",6.7 Log10 CFU/ml
same,"Time Kill Curve P. acnes, bacteria quantification","P. acnes (ATCC 6919); 2%, T + 48 h",7.8 Log10 CFU/ml
same,"Optical density, C. acnes",[1]; [2],0.238 and 0.246
same,"Percentage of inhibition, C. acnes",[1]; [2],2.0% and 0%
same,"Optical density, C. acnes","[1]; 0.5% (m/v), plate col. 5",0.242 and 0.245
same,"Percentage of inhibition, C. acnes","[1]; 0.5% (m/v), plate col. 5",0%
same,"Optical density, C. acnes",[1]; [3],0.244 and 0.245
same,"Percentage of inhibition, C. acnes",[1]; [3],0%
same,"Optical density, C. acnes","[1]; 1% (m/v), plate col. 4",0.241
same,"Percentage of inhibition, C. acnes","[1]; 1% (m/v), plate col. 4",0%
same,"Optical density, C. acnes",[1]; [4],0.243 and 0.242
same,"Percentage of inhibition, C. acnes",[1]; [4],0%
same,antibacterial effect against P. acnes (in words),[1]; 2%,no antibacterial effect
same,"Optical density, C. acnes","[1]; 2% (m/v), plate col. 3",0.236 and 0.234
same,"Percentage of inhibition, C. acnes","[1]; 2% (m/v), plate col. 3",3.0% and 4.1%
same,"Optical density, C. acnes",[1]; [5],0.244
same,"Percentage of inhibition, C. acnes",[1]; [5],0%
same,"Optical density, C. acnes",[1]; [6],0.242 and 0.245
same,"Percentage of inhibition, C. acnes",[1]; [6],0%
same,"Optical density, C. acnes",[1]; [7],0.245 and 0.244
same,"Percentage of inhibition, C. acnes",[1]; [7],0%
same,"Optical density, C. acnes",[1]; [8],0.245 and 0.243
same,"Percentage of inhibition, C. acnes",[1]; [8],0%
